# According to PubChem BioAssay AID2060904 (Molecular Pharmacology Branch, DTP, NCI, 2025):
# Tested on: 349418-098-R-PDC complex spheroid viability
# Assay: Anticancer human tumor 349418-098-R-PDC patient-derived lung adenocarcinoma cell line growth inhibition [RAS]
# Settings: for viability, T/C: stronger effect = lower value
# How it was run: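 Multi-cell-type spheroids: tumor cells plus HUVEC endothelial cells and mesenchymal stem cells. RAS-pathway inhibitors were combined with targeted agents, each dosed in half-log steps down from clinical Cmax, or from 10 microM when Cmax was unknown.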
# 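Also: spheroids exposed to compound for seven days before viability readout.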
smiles,measurement,setting,value
CCc1c2c(nc3ccc(O)cc13)-c1cc3c(c(=O)n1C2)COC(=O)[C@]3(O)CC + CCn1c(-c2cc(N3CCN(C)CC3)cnc2C(C)OC)c2c3cc(ccc31)-c1csc(n1)CC(NC(=O)C1CC1C)C(=O)N1CCCC(N1)C(=O)OCC(C)(C)C2,IC50,"curve of first compound, second compound 0.000949 µM",2.48 nM
same,IC50,"curve of first compound, second compound 0.003 µM",2.46 nM
same,IC50,"curve of first compound, second compound 0.00949 µM",3.33 nM
same,IC50,"curve of first compound, second compound 0.03 µM",2.31 nM
same,IC50,"curve of first compound, second compound 0.0949 µM",2.78 nM
same,IC50,"curve of first compound, second compound 0.3 µM",2.42 nM
same,"viability, T/C","second compound 0.000949 µM, first compound 0.000949 µM",88%
same,"viability, T/C","second compound 0.000949 µM, first compound 0.003 µM",42.6%
same,"viability, T/C","second compound 0.000949 µM, first compound 0.00949 µM",12.3%
same,"viability, T/C","second compound 0.000949 µM, first compound 0.03 µM",6.15%
same,"viability, T/C","second compound 0.000949 µM, first compound 0.0949 µM",2.77%
same,"viability, T/C","second compound 0.000949 µM, first compound 0.3 µM",1.87%
same,"viability, T/C","second compound 0.003 µM, first compound 0.000949 µM",80.7%
same,"viability, T/C","second compound 0.003 µM, first compound 0.003 µM",43.8%
same,"viability, T/C","second compound 0.003 µM, first compound 0.00949 µM",13.4%
same,"viability, T/C","second compound 0.003 µM, first compound 0.03 µM",5.78%
same,"viability, T/C","second compound 0.003 µM, first compound 0.0949 µM",2.15%
same,"viability, T/C","second compound 0.003 µM, first compound 0.3 µM",1.76%
same,"viability, T/C","second compound 0.00949 µM, first compound 0.000949 µM",84.5%
same,"viability, T/C","second compound 0.00949 µM, first compound 0.003 µM",53.7%
same,"viability, T/C","second compound 0.00949 µM, first compound 0.00949 µM",13.5%
same,"viability, T/C","second compound 0.00949 µM, first compound 0.03 µM",6.16%
same,"viability, T/C","second compound 0.00949 µM, first compound 0.0949 µM",3.17%
same,"viability, T/C","second compound 0.00949 µM, first compound 0.3 µM",1.91%
same,"viability, T/C","second compound 0.03 µM, first compound 0.000949 µM",90.9%
same,"viability, T/C","second compound 0.03 µM, first compound 0.003 µM",38%
same,"viability, T/C","second compound 0.03 µM, first compound 0.00949 µM",11.6%
same,"viability, T/C","second compound 0.03 µM, first compound 0.03 µM",5.22%
same,"viability, T/C","second compound 0.03 µM, first compound 0.0949 µM",2.72%
same,"viability, T/C","second compound 0.03 µM, first compound 0.3 µM",2.61%
same,"viability, T/C","second compound 0.0949 µM, first compound 0.000949 µM",88.9%
same,"viability, T/C","second compound 0.0949 µM, first compound 0.003 µM",47.3%
same,"viability, T/C","second compound 0.0949 µM, first compound 0.00949 µM",17.3%
same,"viability, T/C","second compound 0.0949 µM, first compound 0.03 µM",6.18%
same,"viability, T/C","second compound 0.0949 µM, first compound 0.0949 µM",2.99%
same,"viability, T/C","second compound 0.0949 µM, first compound 0.3 µM",1.97%
same,"viability, T/C","second compound 0.3 µM, first compound 0.000949 µM",87.1%
same,"viability, T/C","second compound 0.3 µM, first compound 0.003 µM",41%
same,"viability, T/C","second compound 0.3 µM, first compound 0.00949 µM",19.7%
same,"viability, T/C","second compound 0.3 µM, first compound 0.03 µM",7.26%
same,"viability, T/C","second compound 0.3 µM, first compound 0.0949 µM",3.82%
same,"viability, T/C","second compound 0.3 µM, first compound 0.3 µM",1.95%
C#Cc1c(F)ccc2cc(O)cc(-c3ncc4c(N5CC6CCC(C5)N6)nc(OCC56CCCN5CC(F)C6)nc4c3F)c12 (configuration not stated),"viability, T/C",compound 0.0316 µM,87.2% [middle of 8 runs]
same,"viability, T/C",compound 10 µM,71.8% [middle of 8 runs]
same,IC50,"compound alone, run of 06/10/2024",> 10000 nM
CC(C)NCC(C(=O)N1CCN(c2ncnc3c2C(C)CC3O)CC1)c1ccc(Cl)cc1 (configuration not stated) + C=CC(=O)N1CCN(c2nc(OCC3CCCN3C)nc3c(F)c(-c4nc(N)cc(C)c4C(F)(F)F)c(Cl)cc23)C(C)C1,IC50,"curve of first compound, second compound 0.00316 µM",386 nM
same,IC50,"curve of first compound, second compound 0.01 µM",252 nM
same,IC50,"curve of first compound, second compound 0.0316 µM",593 nM
same,IC50,"curve of first compound, second compound 0.1 µM",545 nM
same,IC50,"curve of first compound, second compound 0.316 µM",620 nM
same,IC50,"curve of first compound, second compound 1 µM",553 nM
same,"viability, T/C","second compound 0.00316 µM, first compound 0.0316 µM",88.2%
same,"viability, T/C","second compound 0.00316 µM, first compound 0.1 µM",86.6%
same,"viability, T/C","second compound 0.00316 µM, first compound 0.316 µM",53.7%
same,"viability, T/C","second compound 0.00316 µM, first compound 1 µM",24.3%
same,"viability, T/C","second compound 0.00316 µM, first compound 3.16 µM",17.2%
same,"viability, T/C","second compound 0.00316 µM, first compound 10 µM",7.89%
same,"viability, T/C","second compound 0.01 µM, first compound 0.0316 µM",102%
same,"viability, T/C","second compound 0.01 µM, first compound 0.1 µM",83.9%
same,"viability, T/C","second compound 0.01 µM, first compound 0.316 µM",39.3%
same,"viability, T/C","second compound 0.01 µM, first compound 1 µM",23.7%
same,"viability, T/C","second compound 0.01 µM, first compound 3.16 µM",15.9%
same,"viability, T/C","second compound 0.01 µM, first compound 10 µM",9.35%
same,"viability, T/C","second compound 0.0316 µM, first compound 0.0316 µM",78%
same,"viability, T/C","second compound 0.0316 µM, first compound 0.1 µM",77.1%
same,"viability, T/C","second compound 0.0316 µM, first compound 0.316 µM",81.2%
same,"viability, T/C","second compound 0.0316 µM, first compound 1 µM",26.1%
same,"viability, T/C","second compound 0.0316 µM, first compound 3.16 µM",22.7%
same,"viability, T/C","second compound 0.0316 µM, first compound 10 µM",10%
same,"viability, T/C","second compound 0.1 µM, first compound 0.0316 µM",70%
same,"viability, T/C","second compound 0.1 µM, first compound 0.1 µM",67.5%
same,"viability, T/C","second compound 0.1 µM, first compound 0.316 µM",67.6%
same,"viability, T/C","second compound 0.1 µM, first compound 1 µM",31.1%
same,"viability, T/C","second compound 0.1 µM, first compound 3.16 µM",16.1%
same,"viability, T/C","second compound 0.1 µM, first compound 10 µM",9.41%
same,"viability, T/C","second compound 0.316 µM, first compound 0.0316 µM",66.8%
same,"viability, T/C","second compound 0.316 µM, first compound 0.1 µM",82.1%
same,"viability, T/C","second compound 0.316 µM, first compound 0.316 µM",76.3%
same,"viability, T/C","second compound 0.316 µM, first compound 1 µM",32.2%
same,"viability, T/C","second compound 0.316 µM, first compound 3.16 µM",24.5%
same,"viability, T/C","second compound 0.316 µM, first compound 10 µM",7.85%
same,"viability, T/C","second compound 1 µM, first compound 0.0316 µM",72.8%
same,"viability, T/C","second compound 1 µM, first compound 0.1 µM",65.4%
same,"viability, T/C","second compound 1 µM, first compound 0.316 µM",71.8%
same,"viability, T/C","second compound 1 µM, first compound 1 µM",28.8%
same,"viability, T/C","second compound 1 µM, first compound 3.16 µM",25%
same,"viability, T/C","second compound 1 µM, first compound 10 µM",10.2%
